Results on one molecule are retold here after patent US20160082015A1, “METHODS, COMPOSITIONS AND KITS FOR PROMOTING MOTOR NEURON SURVIVAL AND TREATING AND DIAGNOSING NEURODEGENERATIVE DISORDERS” (PRESIDENT AND FELLOWS OF HARVARD COLLEGE, priority 2013, published 2016).

The subject of test [1] is GSK-3-deficient MN cultures. Briefly: MN survival using GSK-3 knockout lines. The test is classed as cell-based, mouse. The following applies: trophic factors withdrawn. The text has this: In these cultures, approximately 70% of Isl+/MAP2+ cells were GFP+(i.e., MNs). However, after trophic factor withdrawal, because MNs die selectively under these conditions, only about 50% of Isl+/MAP2+ cells were GFP+MNs. This means that counting Isl+/MAP2+ cells could overestimate the amount of survival after trophic factor withdrawal by approximately 40%. When deprived of neurotrophins, 35% of wild-type Isl+/MAP2+ cells survived, while 44%, 57% and 54% of Isl+/MAP2+ cells in GSK-3[…]-KO, GSK-3[…]-KO and 3/4-KO cultures survived. Using the correction factor for overcounting surviving MNs, this would mean that wild-type MN survival would be approximately 25%, while the KO MNs would have 31%, 41% and 39% survival, respectively.
The inventors used another approach to address the issue of GSK-3 and survival. The inventors produced MNs from the following mouse ESC lines: GSK-3α^−/− (GSK-3α-KO), GSK-3^−/− (GSK-3β-KO), and GSK-3α^+/−/GSK-3β^−/− (3/4-KO). Note that ESCs that are GSK-3α^−/−/GSK-3β^−/− were not able to differentiate into neurons (Doble et al., 2007). Cell death was again initiated by withdrawal of trophic factors and the ability of kenpaullone to promote survival was evaluated. […] The inventors validated this staining method using MN cultures prepared from Hb9::GFP ESCs. In these cultures, approximately 70% of Isl^+/MAP2^+ cells were GFP^+ (i.e., MNs). […]

Test [2] deals with endogenous mouse SOD1 protein. As to the kind of experiment: SOD1 protein levels by Western blotting. To be noted: HB9::GFP or SOD1^G93A/HB9::GFP cultures. The test is classed as cell-based. The protocol: Since the additional death undergone by the SOD1^G93A/HB9::GFP MNs seems likely to relate to their expression of high levels of SOD1^G93A protein, one possibility is that kenpaullone could act in part by reducing those levels. Kenpaullone was added to cultures on day 4, and the levels of mutant SOD1^G93A protein were analyzed by Western blotting on day 21 (FIGS. 5A and 5B). […] The endogenous mouse SOD1 protein was not affected in either HB9::GFP or SOD1^G93A/HB9::GFP cultures (data not shown). In addition, the inventors discovered that kenpaullone had no effect on the levels of wild-type human SOD1 in cultures produced from an ESC line that overexpresses a wild-type human SOD1 transgene (wtSOD1/Hb9::GFP) (FIGS. SA mad SB). […] However, when the inventors used single cell confocal imaging to examine SOD1^G93A levels specifically in GFP^+ cells, it was clear that the SOD1^G93A levels in MNs were reduced, both in the presence and absence of trophic factors (FIG. 5C).
(In western blotting, separated proteins are transferred to a membrane and probed.)

For test [3], the system named is HB9::GFP MNs. As to the kind of experiment: Whole-cell voltage-clamp and current-clamp recordings. The test is classed as cell-based, mouse. The following applies: −TF/+kenpaullone, 3 days. The protocol: Images show synapsin (yellow) and PSD95 (red) staining on a kenpaullone-treated MN. Arrows indicate examples of synapses on MNs. Data are presented as mean±SEM. Scale bar represents 50 μm. […] HB9::GFP MNs treated for 3 days in the absence of trophic factors (−TF/+kenpaullone) were compared to MNs that were grown in complete medium (+TF) in terms of functional sodium and potassium currents, action potentials, response to excitatory neurotransmitter (kainate, 100 μM), and response to inhibitory neurotransmitter (GABA, 100 μM).
Whole-cell voltage-clamp and current-clamp recordings were performed as described (Son et al., 2011).
To examine whether kenpaullone could maintain neuronal health during trophic factor withdrawal, the inventors also compared the electrophysiological properties of MNs grown in complete medium (+TF) with those of cells in trophic factor-deficient (−TF) medium with or without kenpaullone supplementation (FIGS. 4C and 10G). First of all, when the inventors attempted to record from cells grown in medium lacking both trophic factors and kenpaullone, the inventors were unable to obtain stable recordings despite a significant number of patch attempts. […] The inventors also recorded responses to excitatory neurotransmitters, such as kainate, and Inhibitory transmitters, such as GABA, in the two sets of MNs.

Test [4] deals with HB9::GFP MNs. As to the kind of experiment: Mouse MN survival assay, trophic factor withdrawal. To be noted: for survival of HB9::GFP MNs: trophic factors removed and compound added day 4, fixed day 7.
Protocol: (§1) For the small molecule screen or for standard survival assays, freshly dissociated EBs were plated at a density of 8,000 GFP^+ cells (384-well) or 30.000 GFP+ cells (96-well) per well. Four days later (day 4), trophic factors (BDNF, GDNF and CNTF) were removed, and individual compounds were added to the wells. For the primary screen each was tested at three concentrations (0.1 μM, 1 μM and 10 μM) in duplicate. […] The number of MNs surviving was analyzed by counting the remaining GFP^+ cells in the whole well. Total cell numbers were obtained by counting Hoechst-positive nuclei. A size threshold was set based on control cultures to eliminate apoptotic MNs Unless stated otherwise, survival is measured as fold-increase compared to cultures maintained without trophic factors.
(§2) For long-term MN survival assays, MN cultures were fed with fresh medium and compounds every two days until fixation and quantification as above.
(§3) All primary hits were subsequently tested in a nine-point dose-response assay, using the same screening protocol.
Test [5] has as its system HGK-Tak1-MKK4-JNK-c-Jun cell death signaling cascade. As to the kind of experiment: JNK/c-Jun signaling pathway analysis by immunostaining. The format is cell-based, mouse. To be noted: trophic factor withdrawal. The protocol: For JNK/c-Jun signaling pathway analysis, freshly dissociated SOD1G93A/HB9::GFP and HB9::GFP EBs were plated at a density of 30,000 GFP+ cells/well in 96-well plates and trophic factor withdrawal/compound addition was performed on day 4. Cells were fixed at 1, 6, 24 and 48 h after treatment, stained with appropriate antibodies, and imaged using an automated microscope (Perkin Elmer Operetta) at 20× magnification. GFP+ MNs were identified using Columbus analysis software (Perkin Elmer). Nuclear and cytoplasmic compartments were defined using Hoechst and GFP. Mean intensity of fluorescent staining across nuclear or cytoplasmic compartments was measured for each MN. Intensities were corrected for background staining levels (secondary antibody only) and the number of positive MNs per condition quantified.

A further test relates to SOD1^G93A/HB9::GFP MNs. As to the kind of experiment: Mouse MN survival assay, trophic factor withdrawal. The test is classed as cell-based. To be noted: for survival of SOD1^G93A/HB9::GFP MNs: trophic factors removed and compound added day 4, fixed day 7.
The test system of a further test is PAK 4, 5 and 6. The following applies: cited from earlier work.

Protocol for SOD1^G93A/HB9::GFP MNs: as §1, §2, §3

For the molecule `O=C1Cc2c([nH]c3ccc(Br)cc23)-c2ccccc2N1` [Kenpaullone], in test [1], the “MN survival in GSK-3-deficient cultures” value is given as “still active”. The “endogenous mouse SOD1 protein” value in test [2] is reported as “not affected”. Moreover, the “electrophysiological properties compared with MNs in complete medium (+TF)” value with HB9::GFP MNs [3] is “no significant difference”. For the same molecule, the “MN survival effect after Ara-C treatment to eliminate dividing progenitors” value in the test with HB9::GFP MNs [4] (Ara-C before trophic factor withdrawal) is reported as “did not decrease the effect”. Further, the “long-term survival of MNs without trophic factors” value was “improved survival” in the test on HB9::GFP MNs [4] (days 7, 14, 21 and 28); “improved survival” in the test on SOD1^G93A/HB9::GFP MNs (days 7, 14, 21 and 28). The “MN death in complete medium (+TF)” value in the test with HB9::GFP MNs [4] (first two weeks) and in the test on SOD1^G93A/HB9::GFP MNs (first two weeks) was “reduced the death” each time. In addition, the “survival of FACS purified MNs” value in the test on HB9::GFP MNs [4] (highly enriched Hb9::GFP MN cultures, Ara-C, trophic factors removed) is listed as “still able to promote survival”. Moreover, the “survival of HB9::GFP MNs” value is reported as “strong effects” in the test with HB9::GFP MNs [4] and “potent survival promoting effects” in the test with HB9::GFP MNs [4] (listed as kenpaullone). Moreover, the MKK4 phosphorylation result in test [5] is recorded as “suppressed”. For the same molecule, the “proportion of MNs immunopositive for phospho-Tak1” value in test [5] was “significantly reduced”. Moreover, the “percent of MNs positive for phospho-JNK” value in test [5] (early time points) is on record as “decreased”. The “percent of MNs positive for phospho-cJun” value in test [5] (early time points) is recorded as “decreased”. In addition, the “number of SOD1^G93A/HB9::GFP MNs in medium with kenpaullone” value in the test with SOD1^G93A/HB9::GFP MNs (complete medium (+TF), day 28) came to 8 times. In addition, the “survival of SOD1^G93A/HB9::GFP MNs” value with SOD1^G93A/HB9::GFP MNs was “strong effects”; with SOD1^G93A/HB9::GFP MNs (listed as kenpaullone), “potent survival promoting effects”. The “inhibition of PAK 4, 5 and 6” value in the test on PAK 4, 5 and 6 is reported as “inhibits”.
